Laboratory results from US20230146455A1, “TREATMENT OF INFLAMMATORY DISEASES WITH PEPTIDES AND PHARMACEUTICAL COMPOSITIONS” (Yuyu Pharma, Inc., priority 2020, published 2023).
Where “and” joins values, the source holds several entries; their conditions need not be identical. Equal entries are not always repeated. Where a SMILES comes first, the peptide text is derived from it. [ ]: non-standard residue; d: D form. Hyp = O=C(O)[C@@H]1C[C@@H](O)CN1

Tested on: IL-17A
Assay: Example 9 Luminex, LPS hPBMCs: IL-17A
Assay type: cell-based, human
Method: Treatment Human PBMCs were pretreated with YY-101, YDE-011 and YDE-043 or reference compound; Xiidra® at various concentration (ranging from 1 nM to 100 uM) for 2 h before stimulation. An equal volume of 0.5% DMSO was used as a vehicle control. Then, the cells were treated with LPS at 5 ug/ml. The supernatants from treated cells were harvested at 24 h and placed in a 96 well for Luminex cytokine & chemokine profiling using a Luminex 200 multiplex assay (Luminex; R&D system, USA).
The main study arm with triplicate wells per group in a 24-well plate: • 1. Blank • 2. PBMC: 0.5% DMSO • 3. PBMC+LPS (5 ug/ml) • 4. PBMC+YY-101 100 uM • 5. PBMC+YY-101 10 uM • 6. PBMC+YY-101 1 uM • 7. PBMC+YY-101 0.1 uM • 8. PBMC+YY-101 0.01 uM • 9. PBMC+LPS (5 ug/ml)+Xiidra®100 uM • 10. PBMC+LPS (5 ug/ml)+Xiidra® 10 uM • 11. PBMC+LPS (5 ug/ml)+Xiidra® 1 uM • 12. PBMC+LPS (5 ug/ml)+Xiidra®0.1 uM • 13. PBMC+LPS (5 ug/ml)+Xiidra®0.01 uM • 14. PBMC+LPS (5 ug/ml)+Xiidra®0.001 uM • 15. PBMC+LPS (5 ug/ml)+YY-101 100 uM • 16. PBMC+LPS (5 ug/ml)+YY-101 10 uM • 17. PBMC+LPS (5 ug/ml)+YY-101 1 uM • 18. PBMC+LPS (5 ug/ml)+YY-101 0.1 uM • 19. PBMC+LPS (5 ug/ml)+YY-101 0.01 uM • 20. PBMC+LPS (5 ug/ml)+YY-101 0.001 uM • 21. PBMC+LPS (5 ug/ml)+YDE-011 100 uM • 22. PBMC+LPS (5 ug/ml)+YDE-011 10 uM • 23. PBMC+LPS (5 ug/ml)+YDE-011 1 uM • 24. PBMC+LPS (5 ug/ml)+YDE-011 0.1 uM • 25. PBMC+LPS (5 ug/ml)+YDE-011 0.01 uM • 26. PBMC+LPS (5 ug/ml)+YDE-011 0.001 uM • 27. PBMC+LPS (5 ug/ml)+YDE-043 100 uM • 28. PBMC+LPS (5 ug/ml)+YDE-043 10 uM • 29. PBMC+LPS (5 ug/ml)+YDE-043 1 uM • 30. PBMC+LPS (5 ug/ml)+YDE-043 0.1 uM • 31. PBMC+LPS (5 ug/ml)+YDE-043 0.01 uM • 32. PBMC+LPS (5 ug/ml)+YDE-043 0.001 uM
Multiplex assay was used to measure 30 cytokines and chemokines. The 1:2, 1:10 and 1:200 diluted cell supernatant and serial dilution of the standard were dispensed into a 96 well plate at 50 ul/well. Then, the pre-mixed cocktail of antibody-coated magnetic beads was dispensed at 50 ul/well and incubated at room temperature for 2 h in a horizontal orbital microplate shaker at 800±500 rpm. The beads were washed using a magnetic device to prevent loss. The biotin-antibody was dispensed in 50 ul of each well and incubated at room temperature for 1 h in a shaker at 800±500 rpm. After washing, streptavidin-PE was added at 50 ul/well and incubated at room temperature for 30 min in a shaker under the same conditions. Finally, after washing, wash buffer (100 ul/well) was added to the plate and incubated in a shaker for 2 min. The Luminex™ 200 setting were set according to the manufacturer's protocol. The data was calculated with a standard five-parameter logistic nonlinear regression analysis of the data (xPonent software 4.2, USA). The levels of cytokine/chemokine are normalized to the live cell counts (1×10^5 cells/mL) and presented as concentrations per mL (pg/mL or ng/mL).

[1] = PBMC + LPS(5 ug/ml) + test article 0.001 uM, Mean
[2] = PBMC + LPS(5 ug/ml) + test article 0.001 uM, single replicates (1st, 2nd, 3rd)
[3] = PBMC + LPS(5 ug/ml) + test article 0.01 uM, Mean
[4] = PBMC + LPS(5 ug/ml) + test article 0.01 uM, single replicates (1st, 2nd, 3rd)
[5] = PBMC + LPS(5 ug/ml) + test article 0.1 uM, Mean
[6] = PBMC + LPS(5 ug/ml) + test article 0.1 uM, single replicates (1st, 2nd, 3rd)
[7] = PBMC + LPS(5 ug/ml) + test article 1 uM, Mean
[8] = PBMC + LPS(5 ug/ml) + test article 1 uM, single replicates (1st, 2nd, 3rd)
[9] = PBMC + LPS(5 ug/ml) + test article 10 uM, Mean
[10] = PBMC + LPS(5 ug/ml) + test article 10 uM, single replicates (1st, 2nd, 3rd)
[11] = PBMC + LPS(5 ug/ml) + test article 100 uM, Mean
[12] = PBMC + LPS(5 ug/ml) + test article 100 uM, single replicates (1st, 2nd, 3rd)
[13] = PBMC without LPS + test article 0.01 uM, Mean
[14] = PBMC without LPS + test article 0.01 uM, single replicates (1st, 2nd)
[15] = PBMC without LPS + test article 0.1 uM, Mean
[16] = PBMC without LPS + test article 0.1 uM, single replicates (1st, 2nd)
[17] = PBMC without LPS + test article 1 uM, Mean
[18] = PBMC without LPS + test article 1 uM, single replicates (1st, 2nd)
[19] = PBMC without LPS + test article 10 uM, Mean
[20] = PBMC without LPS + test article 10 uM, single replicates (1st, 2nd)
[21] = PBMC without LPS + test article 100 uM, Mean
[22] = PBMC without LPS + test article 100 uM, single replicates (1st, 2nd)

CC(C)C[C@H](NC(=O)CNC(=O)[C@H](CC(=O)O)NC(=O)[C@H](CCC(N)=O)NC(=O)CNC(=O)[C@@H]1C[C@@H](O)CN1)C(=O)N[C@@H](C)C(=O)NCC(=O)N1CCC[C@H]1C(=O)N[C@@H](CCCCN)C(=O)O [YY-101] (H-[Hyp]GQDGLAGPK-OH; N-terminus and C-terminus assumed)
Concentration, IL-17A [1]: 3.8 pg/mL
MFI, Bead name: IL-17A [1]: 2.2
conc/live cell, IL-17A [1]: 0.6 pg/10^5
Concentration, IL-17A [2]: 4.3 pg/ml (2×) and 2.7 pg/ml
MFI, Bead name: IL-17A [2]: 2.5 (2×) and 1.5
conc/live cell, IL-17A [2]: 0.8 pg/10^5 and 0.6 pg/10^5 and 0.4 pg/10^5
Concentration, IL-17A [3]: 4.9 pg/mL
MFI, Bead name: IL-17A [3]: 2.8
conc/live cell, IL-17A [3]: 0.8 pg/10^5
Concentration, IL-17A [4]: 6.0 pg/ml (2×) and 2.7 pg/ml
MFI, Bead name: IL-17A [4]: 3.5 (2×) and 1.5
conc/live cell, IL-17A [4]: 0.9 pg/10^5 and 1.0 pg/10^5 and 0.4 pg/10^5
Concentration, IL-17A [5]: 4.3 pg/mL
MFI, Bead name: IL-17A [5]: 2.5
conc/live cell, IL-17A [5]: 0.7 pg/10^5
Concentration, IL-17A [6]: 6.0 pg/ml (2×) and 1.0 pg/ml
MFI, Bead name: IL-17A [6]: 3.5 (2×) and 0.5
conc/live cell, IL-17A [6]: 1.0 pg/10^5 (2×) and 0.2 pg/10^5
Concentration, IL-17A [7]: 5.4 pg/mL
MFI, Bead name: IL-17A [7]: 3.2
conc/live cell, IL-17A [7]: 0.8 pg/10^5
Concentration, IL-17A [8]: 4.3 pg/ml (2×) and 7.5 pg/ml
MFI, Bead name: IL-17A [8]: 2.5 (2×) and 4.5
conc/live cell, IL-17A [8]: 0.7 pg/10^5 and 0.6 pg/10^5 and 1.2 pg/10^5
Concentration, IL-17A [9]: 3.3 pg/mL
MFI, Bead name: IL-17A [9]: 1.8
conc/live cell, IL-17A [9]: 0.5 pg/10^5
Concentration, IL-17A [10]: 4.3 pg/ml and 2.7 pg/ml (2×)
MFI, Bead name: IL-17A [10]: 2.5 and 1.5 (2×)
conc/live cell, IL-17A [10]: 0.7 pg/10^5 and 0.4 pg/10^5 (2×)
Concentration, IL-17A [11]: 1.6 pg/mL
MFI, Bead name: IL-17A [11]: 0.8
conc/live cell, IL-17A [11]: 0.3 pg/10^5
Concentration, IL-17A [12]: 1.0 pg/ml (2×) and 2.7 pg/ml
MFI, Bead name: IL-17A [12]: 0.5 (2×) and 1.5
conc/live cell, IL-17A [12]: 0.2 pg/10^5 (2×) and 0.4 pg/10^5
Concentration, IL-17A [13]: 7.5 pg/mL
MFI, Bead name: IL-17A [13]: 4.5
conc/live cell, IL-17A [13]: 1.5 pg/10^5
Concentration, IL-17A [14]: 7.5 pg/mL
MFI, Bead name: IL-17A [14]: 4.5
conc/live cell, IL-17A [14]: 1.5 pg/10^5 and 1.6 pg/10^5
Concentration, IL-17A [15]: 8.3 pg/mL
MFI, Bead name: IL-17A [15]: 5.0
conc/live cell, IL-17A [15]: 1.5 pg/10^5
Concentration, IL-17A [16]: 4.3 pg/mL and 12.2 pg/mL
MFI, Bead name: IL-17A [16]: 2.5 and 7.5
conc/live cell, IL-17A [16]: 1.0 pg/10^5 and 2.1 pg/10^5
Concentration, IL-17A [17]: 5.2 pg/mL
MFI, Bead name: IL-17A [17]: 3.0
conc/live cell, IL-17A [17]: 0.9 pg/10^5
Concentration, IL-17A [18]: 6.0 pg/mL and 4.3 pg/mL
MFI, Bead name: IL-17A [18]: 3.5 and 2.5
conc/live cell, IL-17A [18]: 1.1 pg/10^5 and 0.8 pg/10^5
Concentration, IL-17A [19]: 18.3 pg/mL
MFI, Bead name: IL-17A [19]: 11.5
conc/live cell, IL-17A [19]: 2.9 pg/10^5
Concentration, IL-17A [20]: 22.9 pg/mL and 13.8 pg/mL
MFI, Bead name: IL-17A [20]: 14.5 and 8.5
conc/live cell, IL-17A [20]: 3.6 pg/10^5 and 2.3 pg/10^5
Concentration, IL-17A [21]: 3.5 pg/mL
MFI, Bead name: IL-17A [21]: 2.0
conc/live cell, IL-17A [21]: 0.5 pg/10^5
Concentration, IL-17A [22]: 2.7 pg/mL and 4.3 pg/mL
MFI, Bead name: IL-17A [22]: 1.5 and 2.5
conc/live cell, IL-17A [22]: 0.4 pg/10^5 and 0.6 pg/10^5
